# From ChEMBL document CHEMBL3870360, “GluN2A-Selective Pyridopyrimidinone Series of NMDAR Positive Allosteric Modulators with an Improved in Vivo Profile” (ACS Med Chem Lett, 2017)
# Tests used:
# [1] = biological target: T1, Glutamate receptor 2 (Homo sapiens, UniProt P42262); assay: Positive allosteric modulation of human GluA2 receptor flop isoform assessed as increase in glutamate-induced calcium flux at 125 uM measured at time interval of 5 mins in presence of saturating glycine by calcium dye-based fluorescence assay relative to glutamate; type: Functional, single protein
# [2] = biological target: T2, Glutamate NMDA receptor; GRIN1/GRIN2A (Homo sapiens, UniProt Q05586+Q12879); assay: Positive allosteric modulation of GluN1/GluN2A receptor (unknown origin) expressed in CHO cells assessed as increase in glutamate-induced calcium flux measured at time interval of 5 mins in presence of saturating glycine by calcium dye-based fluorescence assay; type: cell-based
# [3] = biological target: T1, Glutamate receptor 2; assay: Positive allosteric modulation of human GluA2 receptor flip isoform assessed as increase in glutamate-induced calcium flux at 125 uM measured at time interval of 5 mins in presence of saturating glycine by calcium dye-based fluorescence assay relative to glutamate; type: single protein
# [4] = system: MDR1 (human); assay: Efflux ratio of permeability from basolateral to apical over apical to basolateral side in MDCK cells expressing human MDR1; type: ADME, cell-based, Canis lupus familiaris; conditions: dog
# [5] = biological target: T2, Glutamate NMDA receptor; GRIN1/GRIN2A; assay: Positive allosteric modulation of GluN1/GluN2A receptor (unknown origin) expressed in CHO cells assessed as increase in glutamate-induced calcium flux at 125 uM measured at time interval of 5 mins in presence of saturating glycine by calcium dye-based fluorescence assay relative to glutamate; type: cell-based
# [6] = biological target: T1, Glutamate receptor 2; assay: Positive allosteric modulation of human GluA2 receptor flip isoform assessed as increase in glutamate-induced calcium flux measured at time interval of 5 mins in presence of saturating glycine by calcium dye-based fluorescence assay; type: Functional, single protein
# [7] = biological target: T1, Glutamate receptor 2; assay: Positive allosteric modulation of human GluA2 receptor flop isoform assessed as increase in glutamate-induced calcium flux measured at time interval of 5 mins in presence of saturating glycine by calcium dye-based fluorescence assay; type: Functional, single protein
# [8] = biological target: T2, Glutamate NMDA receptor; GRIN1/GRIN2A; assay: Deactivation of GluN1/GluN2A receptor (unknown origin) expressed in CHO cells assessed as time constant for signal decay at 1 uM preincubated followed by glutamate addition in presence of saturating glycine measured after glutamate removal by electrophysiology method; type: cell-based
# [9] = Activity at AMPA receptor in mouse hippocampal brain slices assessed as electrical stimulation-induced excitatory post synaptic potential at -70 mV holding potential by electrophysiology method; type: ADME
# [10] = Unbound Cmax in mouse at 5 mg/kg, po; type: ADME, organism-based; conditions: in vivo
# [11] = Unbound clearance in mouse blood at 0.5 mg/kg, iv; type: ADME, organism-based; conditions: in vivo
# [12] = Selectivity ratio of EC50 for human GluA2 flop isoform receptor to EC50 for GluN1/GluN2A receptor (unknown origin) expressed in CHO cells; type: ADME, cell-based
# [13] = Protein binding in human plasma; type: ADME, cell-free; conditions: read-out: PPB (converted)
# [14] = biological target: Glutamate NMDA receptor; GRIN1/GRIN2B (Homo sapiens, UniProt Q05586+Q13224); assay: Positive allosteric modulation of GluN1/GluN2B receptor (unknown origin) expressed in HEK293 cells assessed as increase in glutamate-induced calcium flux at 125 uM measured at time interval of 5 mins in presence of saturating glycine by calcium dye-based fluorescence assay relative to glutamate; type: ADME, cell-based
# [15] = Half life in mouse at 0.5 mg/kg, iv; type: ADME, organism-based; conditions: in vivo
# [16] = Selectivity ratio of EC50 for GluN1/GluN2B receptor (unknown origin) expressed in HEK293 cells to EC50 for GluN1/GluN2A receptor (unknown origin) expressed in CHO cells; type: cell-based; conditions: human
# [17] = Protein binding in mouse plasma; type: ADME, cell-free; conditions: read-out: PPB (converted)
# [18] = Kinetic solubility of the compound; type: physicochemical; conditions: read-out: Kinetic_solubility
# [19] = biological target: Ionotropic glutamate receptor NMDA 1/2D (Homo sapiens, UniProt O15399+Q05586); assay: Positive allosteric modulation of GluN1/GluN2D receptor (unknown origin) assessed as increase in glutamate-induced calcium flux measured at time interval of 5 mins in presence of saturating glycine by calcium dye-based fluorescence assay
# [20] = Lipophilicity, log D of the compound; type: physicochemical; conditions: octanol/water
# [21] = Ratio of fCmax in mouse at 5 mg/kg, po to EC50 for GluN2A receptor (unknown origin) expressed in CHO cells co-expressing GluN1 receptor
# [22] = Drug uptake in mouse brain; type: ADME, tissue-based; conditions: in vivo
# [23] = Clearance in mouse blood at 0.5 mg/kg, iv; type: ADME, organism-based
# [24] = biological target: Ionotropic glutamate receptor NMDA 1/2C (Homo sapiens, UniProt Q05586+Q14957); assay: Positive allosteric modulation of GluN1/GluN2C receptor (unknown origin) assessed as increase in glutamate-induced calcium flux measured at time interval of 5 mins in presence of saturating glycine by calcium dye-based fluorescence assay
# [25] = Oral bioavailability in mouse at 5 mg/kg; type: ADME, organism-based; conditions: in vivo
# [26] = Unbound AUClast in mouse at 5 mg/kg, po; type: ADME, organism-based; conditions: in vivo
# [27] = Volume of distribution at steady state in mouse at 0.5 mg/kg, iv; type: ADME, organism-based; conditions: in vivo, read-out: Vdss
# [28] = Selectivity ratio of EC50 for human GluA2 flip isoform receptor to EC50 for GluN1/GluN2A receptor (unknown origin) expressed in CHO cells; type: ADME, cell-based
# [29] = Ratio of unbound concentration in brain to plasma in mouse at 5 mg/kg, po at 1 hr; type: ADME, organism-based; conditions: brain and plasma, read-out: K(p,uu,brain)
# T1 sequence (P42262 whole entry, canonical isoform): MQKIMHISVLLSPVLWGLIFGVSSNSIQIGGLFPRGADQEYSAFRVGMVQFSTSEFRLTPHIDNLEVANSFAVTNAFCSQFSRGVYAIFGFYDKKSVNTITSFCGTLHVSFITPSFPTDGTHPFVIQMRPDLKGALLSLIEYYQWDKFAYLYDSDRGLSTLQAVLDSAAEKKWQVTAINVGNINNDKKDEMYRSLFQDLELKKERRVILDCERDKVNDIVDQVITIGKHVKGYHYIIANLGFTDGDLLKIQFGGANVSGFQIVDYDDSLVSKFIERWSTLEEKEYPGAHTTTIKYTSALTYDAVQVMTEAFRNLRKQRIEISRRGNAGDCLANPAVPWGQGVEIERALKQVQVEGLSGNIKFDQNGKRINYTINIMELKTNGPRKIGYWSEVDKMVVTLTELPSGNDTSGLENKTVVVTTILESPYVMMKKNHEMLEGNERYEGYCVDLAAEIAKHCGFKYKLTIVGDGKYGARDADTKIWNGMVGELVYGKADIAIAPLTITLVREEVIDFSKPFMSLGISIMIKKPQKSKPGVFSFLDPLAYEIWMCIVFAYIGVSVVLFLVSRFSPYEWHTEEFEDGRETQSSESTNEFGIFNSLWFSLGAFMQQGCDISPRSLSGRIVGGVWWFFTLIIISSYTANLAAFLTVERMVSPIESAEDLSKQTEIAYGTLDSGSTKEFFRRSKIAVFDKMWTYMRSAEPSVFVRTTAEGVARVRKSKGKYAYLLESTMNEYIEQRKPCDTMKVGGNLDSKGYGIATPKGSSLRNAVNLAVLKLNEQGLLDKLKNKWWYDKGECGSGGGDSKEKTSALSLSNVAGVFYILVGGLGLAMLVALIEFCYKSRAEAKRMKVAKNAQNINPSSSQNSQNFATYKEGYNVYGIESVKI
# Chain of Glutamate NMDA receptor; GRIN1/GRIN2B (Q13224 whole entry, other chains not shown): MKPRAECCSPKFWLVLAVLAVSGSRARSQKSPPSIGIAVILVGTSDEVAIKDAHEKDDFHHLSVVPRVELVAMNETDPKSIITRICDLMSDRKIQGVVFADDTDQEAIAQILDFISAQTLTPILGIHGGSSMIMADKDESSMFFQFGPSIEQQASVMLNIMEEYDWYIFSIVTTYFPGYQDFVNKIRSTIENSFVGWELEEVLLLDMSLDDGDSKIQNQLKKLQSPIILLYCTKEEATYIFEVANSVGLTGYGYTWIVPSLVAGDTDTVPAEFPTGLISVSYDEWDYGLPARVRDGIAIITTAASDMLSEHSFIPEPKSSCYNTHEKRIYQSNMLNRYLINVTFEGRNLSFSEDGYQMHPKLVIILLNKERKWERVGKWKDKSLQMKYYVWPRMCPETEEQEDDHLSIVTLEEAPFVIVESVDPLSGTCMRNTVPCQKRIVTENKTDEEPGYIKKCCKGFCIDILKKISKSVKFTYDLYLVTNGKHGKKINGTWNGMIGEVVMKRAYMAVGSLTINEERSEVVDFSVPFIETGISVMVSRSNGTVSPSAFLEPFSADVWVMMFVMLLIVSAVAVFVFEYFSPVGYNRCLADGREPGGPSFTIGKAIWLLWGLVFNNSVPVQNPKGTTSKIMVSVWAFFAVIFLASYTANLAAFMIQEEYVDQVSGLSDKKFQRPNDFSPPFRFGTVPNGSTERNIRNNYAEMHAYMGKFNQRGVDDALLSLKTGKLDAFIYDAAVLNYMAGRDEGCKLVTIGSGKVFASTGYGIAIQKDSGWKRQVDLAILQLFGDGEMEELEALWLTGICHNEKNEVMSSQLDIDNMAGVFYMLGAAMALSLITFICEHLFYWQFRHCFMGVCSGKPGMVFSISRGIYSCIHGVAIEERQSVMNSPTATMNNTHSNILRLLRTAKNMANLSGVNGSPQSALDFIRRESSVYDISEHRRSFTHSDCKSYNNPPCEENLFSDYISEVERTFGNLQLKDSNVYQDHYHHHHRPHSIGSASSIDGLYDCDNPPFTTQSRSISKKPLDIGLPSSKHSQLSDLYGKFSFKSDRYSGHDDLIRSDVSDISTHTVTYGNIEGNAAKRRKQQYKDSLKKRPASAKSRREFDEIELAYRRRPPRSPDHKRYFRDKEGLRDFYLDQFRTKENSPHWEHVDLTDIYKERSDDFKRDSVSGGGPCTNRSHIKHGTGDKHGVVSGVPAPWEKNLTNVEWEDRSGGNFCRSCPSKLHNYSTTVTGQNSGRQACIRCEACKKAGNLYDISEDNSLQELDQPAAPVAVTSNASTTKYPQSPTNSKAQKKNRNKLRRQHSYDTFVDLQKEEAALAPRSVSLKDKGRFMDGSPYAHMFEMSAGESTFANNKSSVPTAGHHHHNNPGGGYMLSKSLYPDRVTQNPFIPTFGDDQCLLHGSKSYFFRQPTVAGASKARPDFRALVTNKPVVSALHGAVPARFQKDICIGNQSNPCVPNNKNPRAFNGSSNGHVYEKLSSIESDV
# Chain of Ionotropic glutamate receptor NMDA 1/2D (O15399 whole entry, other chains not shown): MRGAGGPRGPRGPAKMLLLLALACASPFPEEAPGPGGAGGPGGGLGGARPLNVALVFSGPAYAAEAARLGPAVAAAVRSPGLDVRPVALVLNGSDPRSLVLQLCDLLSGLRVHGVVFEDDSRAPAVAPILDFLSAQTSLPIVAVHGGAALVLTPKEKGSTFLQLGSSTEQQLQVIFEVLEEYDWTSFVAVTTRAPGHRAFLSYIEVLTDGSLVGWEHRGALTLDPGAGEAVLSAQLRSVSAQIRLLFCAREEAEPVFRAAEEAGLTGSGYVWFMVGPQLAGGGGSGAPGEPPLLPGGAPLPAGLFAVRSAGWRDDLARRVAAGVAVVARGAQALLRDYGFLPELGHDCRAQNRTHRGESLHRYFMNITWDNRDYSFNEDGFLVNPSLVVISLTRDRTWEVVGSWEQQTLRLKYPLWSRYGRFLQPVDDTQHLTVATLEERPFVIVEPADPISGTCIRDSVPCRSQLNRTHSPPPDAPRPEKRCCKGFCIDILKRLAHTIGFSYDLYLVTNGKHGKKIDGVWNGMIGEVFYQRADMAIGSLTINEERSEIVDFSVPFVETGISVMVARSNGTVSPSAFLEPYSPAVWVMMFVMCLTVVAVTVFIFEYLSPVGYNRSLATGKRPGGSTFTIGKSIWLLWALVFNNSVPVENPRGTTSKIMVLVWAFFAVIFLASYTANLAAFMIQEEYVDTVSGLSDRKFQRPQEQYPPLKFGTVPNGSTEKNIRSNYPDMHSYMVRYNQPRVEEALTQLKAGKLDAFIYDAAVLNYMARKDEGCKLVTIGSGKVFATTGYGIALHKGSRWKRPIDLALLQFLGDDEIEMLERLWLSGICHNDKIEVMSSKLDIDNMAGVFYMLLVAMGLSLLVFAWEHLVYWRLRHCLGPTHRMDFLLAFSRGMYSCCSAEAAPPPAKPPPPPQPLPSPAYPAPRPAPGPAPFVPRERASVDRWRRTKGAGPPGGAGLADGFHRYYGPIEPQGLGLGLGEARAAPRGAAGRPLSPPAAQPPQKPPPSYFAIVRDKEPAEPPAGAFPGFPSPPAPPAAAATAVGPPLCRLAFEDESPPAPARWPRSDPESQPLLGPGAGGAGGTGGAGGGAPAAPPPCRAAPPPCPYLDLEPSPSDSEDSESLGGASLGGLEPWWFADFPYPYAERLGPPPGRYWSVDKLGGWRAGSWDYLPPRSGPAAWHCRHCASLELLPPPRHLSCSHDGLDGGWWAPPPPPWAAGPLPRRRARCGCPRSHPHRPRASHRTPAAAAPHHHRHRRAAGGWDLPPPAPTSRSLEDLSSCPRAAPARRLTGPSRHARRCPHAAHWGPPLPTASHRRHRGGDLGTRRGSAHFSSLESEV
# Chain of Ionotropic glutamate receptor NMDA 1/2C (Q14957 whole entry, other chains not shown): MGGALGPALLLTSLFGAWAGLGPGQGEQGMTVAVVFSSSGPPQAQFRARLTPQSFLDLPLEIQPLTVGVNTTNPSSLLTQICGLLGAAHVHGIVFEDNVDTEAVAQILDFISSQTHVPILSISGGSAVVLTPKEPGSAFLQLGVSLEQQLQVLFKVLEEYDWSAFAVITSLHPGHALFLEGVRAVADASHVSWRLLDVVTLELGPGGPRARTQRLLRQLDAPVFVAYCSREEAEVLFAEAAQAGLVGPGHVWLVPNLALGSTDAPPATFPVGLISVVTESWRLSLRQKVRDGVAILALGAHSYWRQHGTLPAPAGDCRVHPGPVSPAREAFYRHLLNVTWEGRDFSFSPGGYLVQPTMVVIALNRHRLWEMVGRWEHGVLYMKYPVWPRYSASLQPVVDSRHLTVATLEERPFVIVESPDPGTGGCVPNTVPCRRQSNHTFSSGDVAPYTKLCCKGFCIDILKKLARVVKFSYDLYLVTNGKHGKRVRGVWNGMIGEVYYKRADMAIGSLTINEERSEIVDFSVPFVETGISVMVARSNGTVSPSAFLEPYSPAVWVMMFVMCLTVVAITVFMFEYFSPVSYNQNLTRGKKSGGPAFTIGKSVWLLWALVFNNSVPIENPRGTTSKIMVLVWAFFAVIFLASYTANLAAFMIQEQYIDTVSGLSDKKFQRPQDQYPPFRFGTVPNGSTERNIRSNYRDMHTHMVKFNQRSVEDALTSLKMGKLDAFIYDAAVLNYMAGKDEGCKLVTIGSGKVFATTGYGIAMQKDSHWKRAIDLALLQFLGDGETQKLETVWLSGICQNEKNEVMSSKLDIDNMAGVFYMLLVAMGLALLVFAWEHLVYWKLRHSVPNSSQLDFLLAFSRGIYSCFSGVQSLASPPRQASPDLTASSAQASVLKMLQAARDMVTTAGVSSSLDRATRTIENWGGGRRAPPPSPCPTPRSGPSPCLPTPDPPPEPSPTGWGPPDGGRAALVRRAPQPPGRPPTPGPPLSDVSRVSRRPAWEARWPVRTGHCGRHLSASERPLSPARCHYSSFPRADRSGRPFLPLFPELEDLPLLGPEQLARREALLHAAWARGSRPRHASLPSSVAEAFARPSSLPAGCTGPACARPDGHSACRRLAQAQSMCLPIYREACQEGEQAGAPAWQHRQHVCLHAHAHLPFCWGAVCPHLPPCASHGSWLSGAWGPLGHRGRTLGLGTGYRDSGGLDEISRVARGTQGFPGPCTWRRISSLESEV
smiles,measurement,setting,value
COc1ccc2nc(Cn3nc(C(F)(F)F)cc3Cl)cc(=O)n2c1[C@@H]1C[C@H]1C#N,Emax at 125 µM,[1],15%
same,EC50,[2],80 nM
same,Emax at 125 µM,[3],28%
same,efflux ratio,[4],3.2
same,Emax,[5],120%
CCNC(=O)c1c(C)sc2nc(Cn3nc(C(F)(F)F)cc3Cl)cc(=O)n12,Emax at 125 µM,[1],16%
same,Emax at 125 µM,[3],8%
same,Emax,[5],120%
Cc1ccc2nc(Cn3nc(C(F)(F)F)cc3Cl)cc(=O)n2c1C1CC1,Emax at 125 µM,[1],3%
same,EC50,[2],280 nM
same,EC50,[6],1300 nM
same,Emax at 125 µM,[3],7%
same,EC50,[7],2500 nM
same,Emax,[5],107%
N#C[C@@H]1C[C@H]1c1cc(C(F)(F)F)cc2nc(Cn3nc(C(F)(F)F)cc3Cl)cc(=O)n12,Emax at 125 µM,[1],77%
same,EC50,[6],27000 nM
same,Emax at 125 µM,[3],27%
same,efflux ratio,[4],2.1
same,EC50,[7],16000 nM
same,Emax,[5],142%
COc1cc([C@@H]2C[C@H]2C#N)n2c(=O)cc(Cn3nc(C(F)(F)F)cc3Cl)nc2c1,Emax at 125 µM,[1],67%
same,EC50,[2],130 nM
same,EC50,[6],6700 nM
same,Emax at 125 µM,[3],51%
same,efflux ratio,[4],2.2
same,EC50,[7],2200 nM
same,Emax,[5],140%
N#C[C@@H]1C[C@H]1c1c(C(F)(F)F)sc2nc(Cn3nc(C(F)(F)F)cc3Cl)cc(=O)n12,TIME,[8],0.000584 h
same,EC50,[9],5700 nM
N#C[C@@H]1C[C@H]1c1c(F)ccc2nc(Cn3nc(C(F)(F)F)cc3Cl)cc(=O)n12,Emax at 125 µM,[1],69%
same,EC50,[2],21 nM
same,EC50,[6],3100 nM
same,Emax at 125 µM,[3],67%
same,efflux ratio,[4],1.5
same,EC50,[7],460 nM
same,Emax,[5],151%
Cc1sc2nc(Cn3nc(C(F)(F)F)cc3Cl)cc(=O)n2c1C1CC1,Emax at 125 µM,[1],32%
same,EC50,[2],270 nM
same,Emax at 125 µM,[3],51%
same,Emax,[5],116%
N#C[C@@H]1C[C@H]1c1cccc2nc(Cn3nc(C(F)(F)F)cc3Cl)cc(=O)n12,Emax at 125 µM,[1],90%
same,EC50,[2],24 nM
same,EC50,[6],810 nM
same,Emax at 125 µM,[3],90%
same,EC50,[7],410 nM
same,Emax,[5],148%
N#C[C@@H]1C[C@H]1c1c(Cl)ccc2nc(Cn3nc(C(F)(F)F)cc3Cl)cc(=O)n12,fCmax,[10],0.06 µM
same,Emax at 125 µM,[1],67%
same,CL free,[11],132 mL/min/kg
same,Ratio EC50,[12],> 1000
same,fraction unbound,[13],0.056
same,Emax at 125 µM,[14],96%
same,EC50,[9],> 15000 nM
same,EC50,[6],45000 nM
same,half-life,[15],8 h
same,Ratio EC50,[16],> 100
same,fraction unbound,[17],0.076
same,Emax at 125 µM,[3],61%
same,efflux ratio,[4],1.6
same,solubility kinetic,[18],43.5 µM
same,EC50,[19],9500 nM
same,logD,[20],1.8
same,Ratio,[21],1.6
same,Drug uptake,[22],94.9%
same,clearance,[23],10 mL/min/kg
same,EC50,[7],49000 nM
same,EC50,[24],4700 nM
same,bioavailability,[25],37%
same,fAUClast,[26],0.53 µM·h
same,Vd,[27],7 L/kg
same,Ratio EC50,[28],> 1000
same,Kp uu at 1 h,[29],0.67
Cc1cc([C@@H]2C[C@H]2C#N)n2c(=O)cc(Cn3nc(C(F)(F)F)cc3Cl)nc2c1,Emax at 125 µM,[1],83%
same,EC50,[6],3100 nM
same,Emax at 125 µM,[3],86%
same,efflux ratio,[4],2.2
same,EC50,[7],210 nM
same,Emax,[5],144%
Cc1sc2nc(Cn3nc(C(F)(F)F)cc3Cl)cc(=O)n2c1-c1cncnc1,Emax at 125 µM,[1],9%
same,EC50,[2],1400 nM
same,EC50,[6],9600 nM
same,Emax at 125 µM,[3],28%
same,EC50,[7],1200 nM
same,Emax,[5],88%
Cc1ccc2nc(Cn3nc(C(F)(F)F)cc3Cl)cc(=O)n2c1-c1cncnc1,Emax at 125 µM,[1],3%
same,EC50,[2],9800 nM
same,Emax at 125 µM,[3],5%
same,Emax,[5],84%
Cc1sc2nc(Cn3nc(C(F)(F)F)cc3Cl)cc(=O)n2c1[C@@H]1C[C@H]1C#N,Emax at 125 µM,[1],93%
same,Emax at 125 µM,[3],91%
same,Emax,[5],151%
Cc1ccc2nc(Cn3nc(C(F)(F)F)cc3Cl)cc(=O)n2c1[C@@H]1C[C@H]1C#N,Emax at 125 µM,[1],63%
same,EC50,[2],41 nM
same,EC50,[6],67000 nM
same,Emax at 125 µM,[3],66%
same,efflux ratio,[4],2
same,EC50,[7],31000 nM
same,Emax,[5],137%
CCNC(=O)c1c(C)ccc2nc(Cn3nc(C(F)(F)F)cc3Cl)cc(=O)n12,Emax at 125 µM,[1],-1%
same,EC50,[2],2500 nM
same,Emax at 125 µM,[3],1%
same,Emax,[5],129%
